Measured values from patent publication US20260224688A1, “HELPER LIPIDS FOR NUCLEIC ACID DELIVERY” (SANOFI PASTEUR INC., priority 2023, published 2026).
Where “and” joins values, the source holds several entries; their conditions need not be identical. Equal entries are not always repeated.

Columns and labels:
hEPO [1] = assay: IM EPO expression of LNPs containing phosphatidylcholine helper lipids; assay type: in vivo, female BALB/cJ mice; conditions: PC/CL-C formulations, helper lipid 13.5 mol %, DOPE = 1
Description: EPO expression studies were conducted with female BALB/cJ mice 6-8 weeks of age. Mice were dosed with […] EPO mRNA in 30 μL of LNPs by a single intramuscular (IM) injection into the gastrocnemius leg muscle. Blood samples were taken 6 and 24 hours post injection and hEPO levels were measured in the blood serum of the mice using an ELISA assay according to the manufacture's protocol. WO2022/099003 A1 also describes an in vivo assay for intramuscular administration (e.g. on page 46, paragraph [00206]).
Lipid nanoparticles were formulated containing the four lipid components shown below, complexed with a hEPO messenger RNA. • Cationic lipid CL-C, 40 mol % • Helper lipid, 13.5 mol % • Cholesterol, 44.8 mol % • DMG-PEG-2K (1,2-dimyristoyl-rac-glycero-3-methoxypolyethyleneglycol), 1.67 mol %
EPO expression studies were performed as described above in Example 3.

hEPO [2] = assay: IV delivery using phosphatidylcholine helper lipids (EPO expression); assay type: in vivo, female BALB/cJ mice; conditions: cationic lipid CL-0137, helper lipid 13.5 mol %; 0.017 μg EPO mRNA tail vein; 6 hours; DOPE = 1
Description: Lipid nanoparticles were formulated containing the four lipid components shown below, complexed with a hEPO messenger RNA. • Cationic lipid CL-0137, 40 mol % • Helper lipid, 13.5 mol % • Cholesterol, 44.8 mol % • DMG-PEG-2K (1,2-dimyristoyl-rac-glycero-3-methoxypolyethyleneglycol), 1.67 mol %
EPO expression studies were conducted with female BALB/cJ mice 6-8 weeks of age. Mice were dosed with 0.017 μg EPO mRNA LNPs in a volume of 5 ul by a single tail vein injection. Blood samples were taken 6 hours post injection and hEPO levels were measured in the blood serum of the mice using an ELISA assay according to the manufacture's protocol.

[3] = mRNA encapsulation efficiency of lipid nanoparticles; assay type: physicochemical; conditions: LNP with cationic lipid CL-A
In short: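 Encapsulation by RiboGreen assay run with and without 0.1% Triton-X 100. LNPs made by ethanolic lipid mixing with acidic aqueous mRNA, molar ratio 40:1.5:30:28.5 (cationic lipid:DMG-PEG2000:cholesterol:helper lipid), ultrafiltered/diafiltered, stored at −80° C. Size/PdI by dynamic light scattering after dilution in 10% trehalose to about 0.1 mg/ml mRNA.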

[4] = Dynamic light scattering of lipid nanoparticles (size, PDI); assay type: physicochemical; conditions: LNP with cationic lipid CL-A
In short: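 LNPs of cationic lipid:DMG-PEG2000:cholesterol:helper lipid at 40:1.5:30:28.5 molar ratio, made by Process A. Diluted in 10% trehalose (about 0.1 mg/ml mRNA) and sized by DLS at 173° backscatter with a 633-nm laser, giving size and PDI.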

hEPO [5] = assay: IM EPO expression of LNPs containing new helper lipids (hEPO in serum by ELISA); assay type: in vivo, female BALB/cJ mice; conditions: for 6-h EPO / 24-h EPO: single IM injection; for 24-h EPO: serum 24 hours post injection
In short: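 Female BALB/cJ mice aged 6-8 weeks received one intramuscular gastrocnemius injection of […] hEPO mRNA in 30 μL LNPs. The LNPs contained cationic lipid, phospholipid helper, cholesterol and DMG-PEG-2K at 40:30:28.5:1.5 mol %. Serum hEPO was measured by ELISA at 6 and 24 h.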

hEPO [6] = assay: IV EPO expression of LNPs (tail vein injection); assay type: in vivo, female BALB/cJ mice; conditions: cationic lipid CL-0137, helper lipid 30 mol %; 0.017 μg EPO mRNA tail vein; 6 hours; DOPE = 1
In short: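 Female BALB/cJ mice (6-8 weeks) received a single tail-vein injection of 0.017 μg hEPO mRNA in LNPs (cationic lipid CL-0137/helper lipid/cholesterol/DMG-PEG-2K, 40:30:28.5:1.5 mol %). Serum hEPO was measured by ELISA on blood taken 6 h post-dose.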

CCCCCCCCC(CCCCCCCC)OC(=O)CCCCCCC(=O)OC[C@@H](COP(=O)([O-])OCC[N+](C)(C)C)OC(=O)CCCCCCC(=O)OC(CCCCCCCC)CCCCCCCC [Compound 42, (S)-2,3-Bis((8-(heptadecan-9-yloxy)-8-oxooctanoyl)oxy)propyl (2-(trimethylammonio)ethyl) phosphate]
Normalized Mean EPO expression (hEPO [1]): 1.1 | Normalized mean IV EPO expression using PC LNPs (hEPO [2]): 1.16

CCCCCCCCCCCCCCCCCC(=O)OC[C@H](COP(=O)([O-])OCC[N+](C)(C)C)OC(=O)CCCCCCCCCCCCCCCCC [DSPC, distearoylphosphatidylcholine, reference compound]
Normalized mean IV EPO expression using PC LNPs (hEPO [2]): 0.89

CCCCCCCCC(CCCCCCCC)OC(=O)CCCCCCCC(=O)O[C@@H](COC(=O)CCCCCCC(=O)OC(CCCCCCCC)CCCCCCCC)COP(=O)(O)OCC[N+](C)(C)C [Compound 46, (S)-3-((8-(Heptadecan-9-yloxy)-8-oxooctanoyl)oxy)-2-((9-(heptadecan-9-yloxy)-9-oxononanoyl)oxy)propyl (2-(trimethylammonio)ethyl) phosphate]
Normalized Mean EPO expression (hEPO [1]): 1.1 | Normalized mean IV EPO expression using PC LNPs (hEPO [2]): 1.34

CCCCCCCCC(CCCCCCCC)OC(=O)CCCCCCCCC(=O)O[C@@H](COC(=O)CCCCCCC(=O)OC(CCCCCCCC)CCCCCCCC)COP(=O)(O)OCC[N+](C)(C)C [Compound 44, (S)-2-((10-(Heptadecan-9-yloxy)-10-oxodecanoyl)oxy)-3-((8-(heptadecan-9-yloxy)-8-oxooctanoyl)oxy)propyl (2-(trimethylammonio)ethyl) phosphate]
Normalized Mean EPO expression (hEPO [1]): 1 | Normalized mean IV EPO expression using PC LNPs (hEPO [2]): 1.32

CCCCCCCCC(CCCCCCCC)C(=O)OCCCCCC(=O)OC[C@@H](COP(=O)(O)OCC[N+](C)(C)C)OC(=O)CCCCCOC(=O)C(CCCCCCCC)CCCCCCCC [Compound 54, (S)-2,3-Bis((6-((2-octyldecanoyl)oxy)hexanoyl)oxy)propyl (2-(trimethylammonio)ethyl) phosphate]
Normalized Mean EPO expression (hEPO [1]): 0.5 | Normalized mean IV EPO expression using PC LNPs (hEPO [2]): 0.97

CCCCCCCCCCCCCCCC(=O)OC[C@@H](COP(=O)(O)OCC[N+](C)(C)C)OC(=O)CCCCCCC(=O)OC(CCCCCCCC)CCCCCCCC [Compound 56, (S)-2-((8-(Heptadecan-9-yloxy)-8-oxooctanoyl)oxy)-3-(palmitoyloxy)propyl (2-(trimethylammonio)ethyl) phosphate]
Normalized Mean EPO expression (hEPO [1]): 1 | Normalized mean IV EPO expression using PC LNPs (hEPO [2]): 1.52

CCCCCCCCC(CCCCCCCC)OC(=O)CCCCCCCCC(=O)OC[C@@H](COP(=O)(O)OCC[N+](C)(C)C)OC(=O)CCCCCCC(=O)OC(CCCCCCCC)CCCCCCCC [Compound 52, (S)-3-((10-(Heptadecan-9-yloxy)-10-oxodecanoyl)oxy)-2-((8-(heptadecan-9-yloxy)-8-oxooctanoyl)oxy)propyl (2-(trimethylammonio)ethyl) phosphate]
Normalized Mean EPO expression (hEPO [1]): 1 | Normalized mean IV EPO expression using PC LNPs (hEPO [2]): 1.53

CCCCCCCC/C=C\CCCCCCCC(=O)OC[C@H](COP(=O)(O)OCCN)OC(=O)CCCCCCC/C=C\CCCCCCCC [DOPE, dioleoylphosphatidylethanolamine, reference compound]
Encapsulation efficiency (EE) [3]: 91% | Normalized Mean EPO expression (hEPO [1]): 1 | Polydispersity Index (PDI) [4]: 0.06 and 0.100 | Size ([4]; hEPO mRNA, 40:30:28.5:1.5): 129 nm and 119 nm | 6-h EPO (hEPO [5]; CL-A LNP, 0.1 μg EPO mRNA in 30 μL, serum 6 hours post injection): 26.23 ng/mL | 24-h EPO (hEPO [5]; CL-A LNP): 19.128 ng/mL | 6-h EPO (hEPO [5]; CL-B LNP, serum 6 hours post injection): 19.62 ng/mL | 24-h EPO (hEPO [5]; CL-B LNP): 15.03 ng/mL | 6-h EPO (hEPO [5]; CL-C LNP): 16.38 ng/mL | 6-h EPO (hEPO [5]; CL-C LNP, (6-h)): 20.96 ng/mL | Normalized Mean EPO expression (hEPO [5]; helper lipid CL-C formulations, IM, DOPE = 1): 1 | Normalized Mean IV EPO expression (hEPO [6]): 1 | Normalized mean IV EPO expression using PC LNPs (hEPO [2]): 1

CCCCCCCCC(CCCCCCCC)OC(=O)CCCCCCCC(=O)OC[C@@H](COP(=O)(O)OCC[N+](C)(C)C)OC(=O)CCCCCCC(=O)OC(CCCCCCCC)CCCCCCCC [Compound 50, (S)-2-((8-(Heptadecan-9-yloxy)-8-oxooctanoyl)oxy)-3-((9-(heptadecan-9-yloxy)-9-oxononanoyl)oxy)propyl (2-(trimethylammonio)ethyl) phosphate]
Normalized Mean EPO expression (hEPO [1]): 1 | Normalized mean IV EPO expression using PC LNPs (hEPO [2]): 1.6

CCCCCCCCC(CCCCCCCC)OC(=O)CCCCCCC(=O)O[C@@H](COC(=O)CCCCC(=O)OC(CCCCCCCC)CCCCCCCC)COP(=O)(O)OCC[N+](C)(C)C [Compound 48, (S)-3-((6-(Heptadecan-9-yloxy)-6-oxohexanoyl)oxy)-2-((8-(heptadecan-9-yloxy)-8-oxooctanoyl)oxy)propyl (2-(trimethylammonio)ethyl) phosphate]
Normalized Mean EPO expression (hEPO [1]): 1.1 | Normalized mean IV EPO expression using PC LNPs (hEPO [2]): 1.08
